Data on 33 compounds can be found in article PMC9097188, “Design, Synthesis, and Molecular Modeling Studies of a Novel Benzimidazole as an Aromatase Inhibitor” (ACS Omega, 2022).

For data set [1], the system named is A549 (lung carcinoma cell line). The data set is described as follows: MTT cytotoxicity assay, A549. Format: cell-based. Particulars: Homo sapiens, mean of four independent studies, read-out: IC50 against A549. On the procedure:
(§1) In this study, all compounds were tested for antiproliferative activity using an MTT assay with doxorubicin as a control against MCF-7 (human breast adenocarcinoma cell line), A549 (lung carcinoma cell line), HepG2 (human liver carcinoma cell line), HeLa (cervical cell line), and C6 (rat glioma cell line) cell lines. Table 1 summarizes the results of four independent studies as the mean IC50 value (half-maximum inhibitory concentration).
(§2) MTT tests were used to screen the anticancer activities of compounds 5a–i. The MTT assays were carried out as stated previously.[16],[17] The anticancer activity of the final compounds was tested on […]: A549 (lung carcinoma cell line), HeLa (cervical cell line), MCF-7 (human breast adenocarcinoma cell line), HepG2 (human liver carcinoma cell line), C6 (rat glioma cell line), and NIH3T3 […] (mouse embryo fibroblast cell line). In the MTT experiments, doxorubicin and Hoechst 33342 were employed as reference drugs.

Data set [2] has as its system MCF-7 (human breast adenocarcinoma cell line). The data set is described as follows: MTT cytotoxicity assay, MCF-7. Format: cell-based. Particulars: mean of four independent studies, read-out: IC50 against MCF-7. On the procedure:
as §1, §2
For orientation: Tetrazolium dyes change colour on reduction, which living cells bring about.

The subject of data set [3] is C6 (rat glioma cell line). Put plainly: MTT cytotoxicity assay, C6. Format: cell-based. Particulars: mean of four independent studies, read-out: IC50 against C6. On the procedure: as §1, §2
Data set [4] concerns HepG2 (human liver carcinoma cell line). Put plainly: MTT cytotoxicity assay, HepG2. Format: cell-based. Particulars: mean of four independent studies, read-out: IC50 against HepG2. On the procedure:
as §1, §2

Data set [5] has as its system HeLa (cervical cell line). The data set is described as follows: MTT cytotoxicity assay, HeLa. Format: cell-based. Particulars: Homo sapiens, mean of four independent studies, read-out: IC50 against HeLa. On the procedure:
as §1, §2

The target in data set [6] is T1, human aromatase (Homo sapiens, UniProt P11511).
T1 construct: purchased BioVision
T1 sequence (P11511 1-503): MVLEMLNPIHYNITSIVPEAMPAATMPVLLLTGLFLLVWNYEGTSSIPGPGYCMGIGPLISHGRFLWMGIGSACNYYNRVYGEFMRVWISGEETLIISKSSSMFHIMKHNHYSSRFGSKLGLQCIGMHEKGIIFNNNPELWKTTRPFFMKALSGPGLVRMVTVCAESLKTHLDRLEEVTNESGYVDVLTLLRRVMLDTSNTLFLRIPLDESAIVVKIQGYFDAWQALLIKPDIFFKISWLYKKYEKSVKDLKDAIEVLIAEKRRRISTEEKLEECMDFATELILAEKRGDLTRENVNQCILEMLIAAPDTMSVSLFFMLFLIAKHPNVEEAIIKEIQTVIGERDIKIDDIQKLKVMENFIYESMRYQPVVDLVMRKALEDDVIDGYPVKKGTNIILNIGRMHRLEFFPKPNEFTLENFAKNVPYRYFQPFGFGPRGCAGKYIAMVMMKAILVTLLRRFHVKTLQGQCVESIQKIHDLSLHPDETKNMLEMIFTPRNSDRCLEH
The data set is described as follows: Aromatase (CYP19A) Inhibitor Screening Kit (Fluorimetric), BioVision. It counts as biochemical. An excerpt:
An in vitro fluorescence-based test (Aromatase (CYP19A) Inhibitor Screening Kit (Fluorimetric), BioVision) was used to determine the inhibitory activity of the produced compounds against human aromatase.
The BioVision Aromatase (CYP19A) Inhibitor Screening Kit (Fluorometric) was used to carry out this experiment.

For data set [7], the target named is aromatase. Particulars: 3D-QSAR data set, IC50 converted to pIC50; SI reference list; cited from earlier work.

Like-named read-outs stand apart in the source and are kept apart here. Some results are limits rather than exact numbers.

Usually IC50 stands for the concentration needed to halve the response being measured. A word on the melting point: it is the temperature of the solid-liquid transition. Regarding `CCOc1ccc(-c2nc3ccc(-c4nnc(SCC(=O)N5CCN(Cc6ccc(Cl)cc6)CC5)o4)cc3[nH]2)cc1` [5h, 2-((5-(2-(4-Ethoxyphenyl)-1H-benzo[d]imidazol-6-yl)-1,3,4-oxadiazol-2-yl)thio)-1-(4-(4-chlorobenzyl)piperazin-1-yl)ethan-1-one], the melting point was 177.5 to 178.4 °C. Moreover, the IC50 in data set [1] was not below 100 µM. The IC50 in data set [2] (Homo sapiens, MCF7, MTT assay) is not below 100 µM. Also, the IC50 in data set [3] is not below 100 µM. Moreover, the IC50 in data set [4] is not below 100 µM. The IC50 in data set [5] is not below 100 µM.
As for `COc1ccc(-c2nc3ccc(-c4nnc(SCC(=O)N5CCN(Cc6ccc(Cl)cc6)CC5)o4)cc3[nH]2)cc1` [5e, 2-((5-(2-(4-Methoxyphenyl)-1H-benzo[d]imidazol-6-yl)-1,3,4-oxadiazol-2-yl)thio)-1-(4-(4-chlorobenzyl)piperazin-1-yl)ethan-1-one], the melting point is 138.2 to 140.1 °C. Also, the IC50 in data set [1] was not below 100 µM. Moreover, the IC50 in data set [2] (Homo sapiens, MCF7, MTT assay) was found to be 45.6 ± 2.11 µM. The IC50 in data set [3] was not below 100 µM. In addition, in data set [4], the IC50 was not below 100 µM. Moreover, the IC50 in data set [5] was not below 100 µM.
`COc1ccc(-c2nc3ccc(-c4nnc(SCC(=O)N5CCN(Cc6ccc(F)cc6)CC5)o4)cc3[nH]2)cc1` [5f, 2-((5-(2-(4-Methoxyphenyl)-1H-benzo[d]imidazol-6-yl)-1,3,4-oxadiazol-2-yl)thio)-1-(4-(4-fluorobenzyl)piperazin-1-yl)ethan-1-one] displayed a melting point of 133.4 to 135.8 °C. In addition, the IC50 in data set [1] is not below 100 µM. In addition, the IC50 in data set [2] (Homo sapiens, MCF7, MTT assay) is not below 100 µM. The IC50 in data set [3] is not below 100 µM. For the same compound, in data set [4], the IC50 was not below 100 µM. In data set [5], the IC50 is not below 100 µM.
Turning to `CCOc1ccc(-c2nc3ccc(-c4nnc(SCC(=O)N5CCN(Cc6ccccc6)CC5)o4)cc3[nH]2)cc1` [5g, 2-((5-(2-(4-Ethoxyphenyl)-1H-benzo[d]imidazol-6-yl)-1,3,4-oxadiazol-2-yl)thio)-1-(4-benzylpiperazin-1-yl)ethan-1-one], the melting point fell in the range of 184.4 to 186.8 °C. Besides, the IC50 in data set [1] is not below 100 µM. Moreover, the IC50 in data set [2] (Homo sapiens, MCF7, MTT assay) is not below 100 µM. The IC50 in data set [3] was not below 100 µM. Besides, in data set [4], the IC50 was not below 100 µM. Also, the IC50 in data set [5] was not below 100 µM.
The compound `COc1ccc(-c2nc3ccc(-c4nnc(SCC(=O)N5CCN(Cc6ccccc6)CC5)o4)cc3[nH]2)cc1` [5d, 2-((5-(2-(4-Methoxyphenyl)-1H-benzo[d]imidazol-6-yl)-1,3,4-oxadiazol-2-yl)thio)-1-(4-benzylpiperazin-1-yl)ethan-1-one] came in with a melting point of 172.6 to 174.8 °C. For the same compound, in data set [1], the IC50 was not below 100 µM. Further, in data set [2] (Homo sapiens, MCF7, MTT assay), the IC50 is not below 100 µM. In addition, in data set [3], the IC50 was found to be 88.5 ± 3.41 µM. Besides, the IC50 in data set [4] is not below 100 µM. Moreover, the IC50 in data set [5] is not below 100 µM.
Take `O=C(CSc1nnc(-c2ccc3nc(-c4ccc(O)cc4)[nH]c3c2)o1)N1CCN(Cc2ccc(F)cc2)CC1` [5c, 2-((5-(2-(4-Hydroxyphenyl)-1H-benzo[d]imidazol-6-yl)-1,3,4-oxadiazol-2-yl)thio)-1-(4-(4-fluorobenzyl)piperazin-1-yl)ethan-1-one]: the melting point is more than 400 °C. In data set [1], the IC50 is not below 100 µM. In addition, the concentration for half-maximal inhibition (IC50) in data set [2] (Homo sapiens, MCF7, MTT assay) was found to be 6.55 ± 0.287 µM. Also, the IC50 in data set [2] (MTT assay) worked out at 5.13 ± 0.211 µM. Moreover, the IC50 in data set [3] stood at 18.2 ± 1.46 µM. Moreover, the IC50 in data set [4] is 17.3 ± 1.1 µM. In addition, the 50% inhibitory concentration (IC50) in data set [6] (experimental validation of 3D-QSAR model, read-out: IC50 (aromatase, Table 5)) came to 2.51 µM. Also, the IC50 in data set [6] (fluorimetric kit, compound dissolved in acetonitrile, read-out: IC50 aromatase inhibition) was determined as 2.51 ± 0.124 µM.
For `COc1cccc2c1C(=O)c1c(O)c3c(c(O)c1C2=O)C[C@@](O)(C(=O)CO)C[C@@H]3O[C@H]1C[C@H](N)[C@H](O)[C@H](C)O1` [Dox., doxorubicin], the IC50 in data set [3] was 28.7 ± 1.23 µM.
`CCn1cc([C@@H](c2ccc(Cl)cc2Cl)n2cccc2)c2cc(Br)ccc21` [118S]: the “Experimental pIC50” value in data set [7] is reported as 6.478.
For the compound `OCc1cn(-c2ccccc2Cl)c2ccccc12` [compound 108], the “Experimental pIC50” value in data set [7] is given as 7.268.
As to `N#Cc1ccc(-n2cc(CO)c3ccccc32)cc1` [compound 111], the “Experimental pIC50” value in data set [7] is given as 7.301.
Consider `CCn1cc([C@@H](c2ccc(F)cc2)n2cncn2)c2cc(Br)ccc21` [119R], for which the “Experimental pIC50” value in data set [7] is 6.016.
For `O=[N+]([O-])c1ccc(S(=O)(=O)NCCc2c(C(c3ccc(O)cc3)c3[nH]c4ccccc4c3CCNS(=O)(=O)c3ccc([N+](=O)[O-])cc3)[nH]c3ccccc23)cc1` [compound 49], in data set [7], the “Experimental pIC50” value was 5.638.
As to `O=S(=O)(NCCc1c(C(c2ccc(Br)cc2)c2[nH]c3ccccc3c2CCNS(=O)(=O)c2ccc(C(F)(F)F)cc2)[nH]c2ccccc12)c1ccc(C(F)(F)F)cc1` [compound 39], the “Experimental pIC50” value in data set [7] is given as 5.469.
With `Cc1ccc2nc(-c3ccc(-c4nnc5n4N=C(c4ccc(C#N)cc4)CS5)cc3)[nH]c2c1` [compound 81], in data set [7], the “Experimental pIC50” value was 5.871.
As to `Clc1ccccc1-n1cc(Cn2ccnc2)c2ccccc21` [compound 112], the “Experimental pIC50” value in data set [7] is reported as 6.762.
As for `Clc1cccc([C@@H](c2ccc3[nH]ccc3c2)n2ccnc2)c1` [3R], the “Experimental pIC50” value in data set [7] is given as 6.527.
As to `O=S(=O)(NCCc1c(C(c2ccc(Br)cc2)c2[nH]c3ccccc3c2CCNS(=O)(=O)c2ccc(Cl)cc2)[nH]c2ccccc12)c1ccc(Cl)cc1` [compound 38], the “Experimental pIC50” value in data set [7] is given as 5.569.
Turning to `CCn1cc([C@H](c2ccc(Cl)cc2Cl)n2cccc2)c2cc(Br)ccc21` [118R], in data set [7], the “Experimental pIC50” value is listed as 6.478.
In the case of `O=[N+]([O-])c1ccc(S(=O)(=O)NCCc2c(C(c3ccccc3)c3[nH]c4ccccc4c3CCNS(=O)(=O)c3ccc([N+](=O)[O-])cc3)[nH]c3ccccc23)cc1` [compound 30], in data set [7], the “Experimental pIC50” value is listed as 4.951.
Turning to `O=C1Nc2ccccc2C1(c1[nH]c2ccccc2c1CCNS(=O)(=O)c1ccc(Cl)cc1)c1[nH]c2ccccc2c1CCNS(=O)(=O)c1ccc(Cl)cc1` [compound 60], the “Experimental pIC50” value in data set [7] is 5.081.
For the compound `Fc1ccccc1-n1cc(Cn2ccnc2)c2ccccc21` [compound 114], in data set [7], the “Experimental pIC50” value is on record as 6.377.
Take `Cc1ccc(S(=O)(=O)NCCc2c(C(c3ccccc3O)c3[nH]c4ccccc4c3CCNS(=O)(=O)c3ccc(C)cc3)[nH]c3ccccc23)cc1` [compound 50]: in data set [7], the “Experimental pIC50” value is recorded as 5.387.
Regarding `CCn1cc([C@@H](c2ccc(Cl)cc2Cl)n2cncn2)c2cc(Br)ccc21` [120S], the “Experimental pIC50” value in data set [7] is 6.206.
As for `Fc1cccc(-n2cc(Cn3ccnc3)c3ccccc32)c1` [compound 115], in data set [7], the “Experimental pIC50” value is given as 5.513.
Take `CCn1c([C@H](c2cccc(Cl)c2)n2ccnc2)c(C)c2cc(Br)ccc21` [69S]: in data set [7], the “Experimental pIC50” value is reported as 6.027.
`CCn1c([C@@H](c2cccc(Cl)c2)n2ccnc2)c(C)c2cc(Br)ccc21` [69R]: the “Experimental pIC50” value in data set [7] is recorded as 6.027.
In the case of `Cc1ccc2[nH]c(-c3ccc(-c4nnc5n4N=C(c4ccc(Cl)cc4)CS5)cc3)nc2c1` [compound 79], in data set [7], the “Experimental pIC50” value was 5.927.
Turning to `N#Cc1ccc(C(c2[nH]c3ccccc3c2CCNS(=O)(=O)c2ccc(F)cc2)c2[nH]c3ccccc3c2CCNS(=O)(=O)c2ccc(F)cc2)cc1` [compound 36], the “Experimental pIC50” value in data set [7] is on record as 5.009.
In the case of `N#Cc1ccc(C(c2[nH]c3ccccc3c2CCNS(=O)(=O)c2ccc(C(F)(F)F)cc2)c2[nH]c3ccccc3c2CCNS(=O)(=O)c2ccc(C(F)(F)F)cc2)cc1` [compound 37], in data set [7], the “Experimental pIC50” value is 4.815.
Consider `N#Cc1ccc(C(c2ccc3[nH]ccc3c2)n2ccnc2)cc1` (centres unmarked) [5S], for which the “Experimental pIC50” value in data set [7] is on record as 7.714.
As to `O=S(=O)(NCCc1c(C(c2ccccc2O)c2[nH]c3ccccc3c2CCNS(=O)(=O)c2ccc(Cl)cc2)[nH]c2ccccc12)c1ccc(Cl)cc1` [compound 53], the “Experimental pIC50” value in data set [7] was 5.377.
On to `CCn1cc([C@@H](c2ccccc2Cl)n2ccnc2)c2cc(Br)ccc21` [121S], for which, in data set [7], the “Experimental pIC50” value is 6.009.
Consider `Cc1ccc2nc(-c3ccc(-c4nnc5n4N=C(c4ccc(F)cc4)CS5)cc3)[nH]c2c1` [compound 80], for which the “Experimental pIC50” value in data set [7] was 5.906.
